The results in this text go back to patent publication US20250026778A1 (TIUMBIO CO., LTD., priority 2021, published 2025).

SMILES strings stand for the structures.

For one assay, the target named is T1, his-galectin-3 (Homo sapiens, UniProt P17931).
T1 construct: purchased Abcam
T1 sequence (P17931 whole entry): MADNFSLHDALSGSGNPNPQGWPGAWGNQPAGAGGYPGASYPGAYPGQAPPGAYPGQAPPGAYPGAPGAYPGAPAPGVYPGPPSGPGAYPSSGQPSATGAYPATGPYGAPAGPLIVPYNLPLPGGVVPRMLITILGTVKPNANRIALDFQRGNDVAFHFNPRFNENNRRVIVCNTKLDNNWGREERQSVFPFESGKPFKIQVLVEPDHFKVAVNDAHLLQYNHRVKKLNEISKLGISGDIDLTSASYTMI
As to the kind of experiment: TR-FRET assay (in vitro galectin-3 binding inhibitory activity test). As to conditions: Table 1; compound at 20 μM; 60 nM his-galectin-3, 15 nM biotin-ASF; read-out: % Inhibitory activity (at 20 μM). In short, it runs like this: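 Compound is premixed with his-galectin-3 (60 nM final), then biotin-ASF (15 nM), Tb anti-His antibody (2 nM) and streptavidin-d2 (20 nM) are added. After at least 3.5 hours at RT in HEPES/NaCl buffer with Tween 20 and BSA, TR-FRET is read at 615/665 nm. DMSO serves as the uninhibited control, ASF omission as background.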
Regarding `OC[C@H]1O[C@@]2(CCCCO2)[C@H](O)[C@@H](n2cc(-c3cc(F)c(F)c(F)c3)nn2)[C@H]1O` [Compound A24, (2R,3R,4S,5R,6S)-2-(hydroxymethyl)-4-(4-(3,4,5-trifluorophenyl)-1H-1,2,3-triazol-1-yl)-1,7-dioxaspiro[5.5]undecane-3,5-diol], the inhibition at 20 µM was 25 to 50%.

For the compound `O=C(N[C@@H]1CCO[C@]12O[C@H](CO)[C@H](O)[C@H](n1cc(-c3cc(F)c(F)c(F)c3)nn1)[C@H]2O)c1ccc(Oc2ccccc2)cc1` [Compound A120, N-((4R,5S,7R,8R,9S,10R)-8,10-dihydroxy-7-(hydroxymethyl)-9-(4-(3,4,5-trifluorophenyl)-1H-1,2,3-triazol-1-yl)-1,6-dioxaspiro[4.5]decan-4-yl)-4-phenoxybenzamide], the inhibition at 20 µM was 25 to 50%.

As to `OC[C@H]1O[C@@]2(CCCO2)[C@H](OCc2ccccn2)[C@@H](n2cc(-c3cc(F)c(F)c(F)c3)nn2)[C@H]1O` [Compound A17, (5S,7R,8R,9S,10R)-7-(hydroxymethyl)-10-(pyridin-2-ylmethoxy)-9-(4-(3,4,5-trifluorophenyl)-1H-1,2,3-triazol-1-yl)-1,6-dioxaspiro[4.5]decan-8-ol], the inhibition at 20 µM fell in the range of 25 to 50%.

`O=S1(=O)CCC(CO[C@@H]2[C@@H](n3cc(-c4cc(F)c(F)c(F)c4)nn3)[C@@H](O)[C@@H](CO)O[C@@]23CCCO3)CC1` [Compound A26, 4-((((5S,7R,8R,9S,10R)-8-hydroxy-7-(hydroxymethyl)-9-(4-(3,4,5-trifluorophenyl)-1H-1,2,3-triazol-1-yl)-1,6-dioxaspiro[4.5]decan-10-yl)oxy)methyl)tetrahydro-2H-thiopyran 1,1-dioxide]: the inhibition at 20 µM lay in the range of 25 to 50%.

On to `CC(=O)N[C@H]1C(O)O[C@H](CO)[C@@H](O[C@@H]2O[C@H](CO)[C@H](O)[C@H](O)[C@H]2O)[C@@H]1O` (stereo partly drawn) [LacNAc, N-acetyl-D-lactosamine, reference compound], for which the inhibition at 20 µM was < 25%.

On to `OC[C@H]1O[C@]2(CCCO2)[C@H](O)[C@@H](n2cc(-c3cc(F)c(F)c(F)c3)nn2)[C@H]1O` [Compound A100, (5R,7R,8R,9S,10R)-7-(hydroxymethyl)-9-(4-(3,4,5-trifluorophenyl)-1H-1,2,3-triazol-1-yl)-1,6-dioxaspiro[4.5]decane-8,10-diol], for which the inhibition at 20 µM was 25 to 50%.

In the case of `Cn1nnc(-c2ccc(CO[C@@H]3[C@@H](n4cc(-c5cc(F)c(F)c(F)c5)nn4)[C@@H](O)[C@@H](CO)O[C@@]34CCCO4)cc2)n1` [Compound A28, (5S,7R,8R,9S,10R)-7-(hydroxymethyl)-10-((4-(2-methyl-2H-tetrazol-5-yl)benzyl)oxy)-9-(4-(3,4,5-trifluorophenyl)-1H-1,2,3-triazol-1-yl)-1,6-dioxaspiro[4.5]decan-8-ol], the inhibition at 20 µM fell in the range of 25 to 50%.

Regarding `OC[C@H]1O[C@@]2(CCCCS2)[C@H](O)[C@@H](n2cc(-c3cc(F)c(F)c(F)c3)nn2)[C@H]1O` [Compound A109, (2R,3R,4S,5R,6R)-2-(hydroxymethyl)-4-(4-(3,4,5-trifluorophenyl)-1H-1,2,3-triazol-1-yl)-1-oxa-7-thiaspiro[5.5]undecane-3,5-diol], the inhibition at 20 µM is < 25%.

Consider `O=C(N[C@@H]1CCO[C@]12O[C@H](CO)[C@H](O)[C@H](n1cc(-c3cc(F)c(F)c(F)c3)nn1)[C@H]2O)c1ccccc1-c1ccccc1` [Compound A121, N-((4R,5S,7R,8R,9S,10R)-8,10-dihydroxy-7-(hydroxymethyl)-9-(4-(3,4,5-trifluorophenyl)-1H-1,2,3-triazol-1-yl)-1,6-dioxaspiro[4.5]decan-4-yl)-[1.1′ biphenyl]-2-carboxamide], for which the inhibition at 20 µM lay within 25 to 50%.

Regarding `OC[C@H]1O[C@@]2(CCCCO2)[C@H](OCc2cccnc2)[C@@H](n2cc(-c3cc(F)c(F)c(F)c3)nn2)[C@H]1O` [Compound A58, (2R,3R,4S,5R,6S)-2-(hydroxymethyl)-5-(pyridin-3-ylmethoxy)-4-(4-(3,4,5-trifluorophenyl)-1H-1,2,3-triazol-1-yl)-1,7-dioxaspiro[5.5]undecan-3-ol], the inhibition at 20 µM is 25 to 50%.

For `OC[C@H]1O[C@]2(OCC[C@H]2c2ccccc2)[C@H](O)[C@@H](n2cc(-c3cc(F)c(F)c(F)c3)nn2)[C@H]1O` [Compound A30, (4S,5S,7R,8R,9S,10R)-7-(hydroxymethyl)-4-phenyl-9-(4-(3,4,5-trifluorophenyl)-1H-1,2,3-triazol-1-yl)-1,6-dioxaspiro[4.5]decane-8,10-diol], the inhibition at 20 µM is < 25%.

Regarding `O=C(N[C@@H]1CCO[C@]12O[C@H](CO)[C@H](O)[C@H](n1cc(-c3cc(F)c(F)c(F)c3)nn1)[C@H]2O)c1cccc(F)c1` [Compound A60, N-((4R,5S,7R,8R,9S,10R)-8,10-dihydroxy-7-(hydroxymethyl)-9-(4-(3,4,5-trifluorophenyl)-1H-1,2,3-triazol-1-yl)-1,6-dioxaspiro[4.5]decan-4-yl)-3-fluorobenzamide], the inhibition at 20 µM was < 25%.

Still in this assay, the particulars now being: Table 2; compound at 20 μM; 60 nM his-galectin-3, 15 nM biotin-ASF; read-out: % Inhibitory activity (at 20 μM).
Consider `Cc1ccc2ccccc2c1C(=O)N[C@@H]1CCO[C@]12O[C@H](CO)[C@H](O)[C@H](n1cc(-c3cc(F)c(F)c(F)c3)nn1)[C@H]2O` [Compound A240, N-((4R,5S,7R,8R,9S,10R)-8,10-dihydroxy-7-(hydroxymethyl)-9-(4-(3,4,5-trifluorophenyl)-1H-1,2,3-triazol-1-yl)-1,6-dioxaspiro[4.5]decan-4-yl)-2-methyl-1-naphthamide], for which the inhibition at 20 µM fell in the range of 50 to 75%.

As for `O=C(N[C@@H]1CCO[C@]12O[C@H](CO)[C@H](O)[C@H](n1cc(-c3cc(F)c(F)c(F)c3)nn1)[C@H]2O)c1cccc2sccc12` [Compound A198, N-((4R,5S,7R,8R,9S,10R)-8,10-dihydroxy-7-(hydroxymethyl)-9-(4-(3,4,5-trifluorophenyl)-1H-1,2,3-triazol-1-yl)-1,6-dioxaspiro[4.5]decan-4-yl)benzo[b]thiophene-4-carboxamide], the inhibition at 20 µM is > 75%.

Regarding `Cc1cc(C(=O)N[C@@H]2CCO[C@]23O[C@H](CO)[C@H](O)[C@H](n2cc(-c4cc(F)c(F)c(F)c4)nn2)[C@H]3O)c2cc(Br)ccc2n1` [Compound A231, 6-bromo-N-((4R,5S,7R,8R,9S,10R)-8,10-dihydroxy-7-(hydroxymethyl)-9-(4-(3,4,5-trifluorophenyl)-1H-1,2,3-triazol-1-yl)-1,6-dioxaspiro[4.5]decan-4-yl)-2-methylquinoline-4-carboxamide], the inhibition at 20 µM is > 75%.

For `O=C(N[C@@H]1CCO[C@]12O[C@H](CO)[C@H](O)[C@H](n1cc(-c3cc(F)c(F)c(F)c3)nn1)[C@H]2O)c1nsc2cc(Br)ccc12` [Compound A197, 6-bromo-N-((4R,5S,7R,8R,9S,10R)-8,10-dihydroxy-7-(hydroxymethyl)-9-(4-(3,4,5-trifluorophenyl)-1H-1,2,3-triazol-1-yl)-1,6-dioxaspiro[4.5]decan-4-yl)benzo[d]isothiazole-3-carboxamide], the inhibition at 20 µM lay within 50 to 75%.

As for `O=C(N[C@@H]1CCO[C@]12O[C@H](CO)[C@H](O)[C@H](n1cc(-c3cc(F)c(F)c(F)c3)nn1)[C@H]2O)c1coc2cccc(Br)c12` [Compound A250, 4-bromo-N-((4R,5S,7R,8R,9S,10R)-8,10-dihydroxy-7-(hydroxymethyl)-9-(4-(3,4,5-trifluorophenyl)-1H-1,2,3-triazol-1-yl)-1,6-dioxaspiro[4.5]decan-4-yl)benzofuran-3-carboxamide], the inhibition at 20 µM is > 75%.

On to `O=C(N[C@@H]1CCO[C@]12O[C@H](CO)[C@H](O)[C@H](n1cc(-c3cc(F)c(F)c(F)c3)nn1)[C@H]2O)c1ccc2c(Cl)cccc2c1` [Compound A195, 5-chloro-N-((4R,5S,7R,8R,9S,10R)-8,10-dihydroxy-7-(hydroxymethyl)-9-(4-(3,4,5-trifluorophenyl)-1H-1,2,3-triazol-1-yl)-1,6-dioxaspiro[4.5]decan-4-yl)-2-naphthamide], for which the inhibition at 20 µM was 25 to 50%.

Take `O=C(N[C@@H]1CCO[C@]12O[C@H](CO)[C@H](O)[C@H](n1cc(-c3cc(F)c(F)c(F)c3)nn1)[C@H]2O)c1ccc2ccccc2c1Br` [Compound A193, 1-bromo-N-((4R,5S,7R,8R,9S,10R)-8,10-dihydroxy-7-(hydroxymethyl)-9-(4-(3,4,5-trifluorophenyl)-1H-1,2,3-triazol-1-yl)-1,6-dioxaspiro[4.5]decan-4-yl)-2-naphthamide]: the inhibition at 20 µM lay in the range of 50 to 75%.

In the case of `Cc1oc2ccccc2c1C(=O)N[C@@H]1CCO[C@]12O[C@H](CO)[C@H](O)[C@H](n1cc(-c3cc(F)c(F)c(F)c3)nn1)[C@H]2O` [Compound A218, N-((4R,5S,7R,8R,9S,10R)-8,10-dihydroxy-7-(hydroxymethyl)-9-(4-(3,4,5-trifluorophenyl)-1H-1,2,3-triazol-1-yl)-1,6-dioxaspiro[4.5]decan-4-yl)-2-methylbenzofuran-3-carboxamide], the inhibition at 20 µM is > 75%.

The assay is the same for the next values; noted with them: Table 3, found values; compound at 20 μM; 60 nM his-galectin-3, 15 nM biotin-ASF; read-out: % Inhibitory activity (at 20 μM).
With `Cc1ccc2ccccc2c1C(=O)N[C@@H]1CCO[C@]12O[C@H](CO)[C@H](O)[C@H](n1cc(-c3cc(F)c(F)c(F)c3)nn1)[C@H]2O` [Compound A240, N-((4R,5S,7R,8R,9S,10R)-8,10-dihydroxy-7-(hydroxymethyl)-9-(4-(3,4,5-trifluorophenyl)-1H-1,2,3-triazol-1-yl)-1,6-dioxaspiro[4.5]decan-4-yl)-2-methyl-1-naphthamide], the inhibition at 20 µM turned out to be 72.1%.

As to `OC[C@H]1O[C@]2(CCCO2)[C@H](O)[C@@H](n2cc(-c3cc(F)c(F)c(F)c3)nn2)[C@H]1O` [Compound A100, (5R,7R,8R,9S,10R)-7-(hydroxymethyl)-9-(4-(3,4,5-trifluorophenyl)-1H-1,2,3-triazol-1-yl)-1,6-dioxaspiro[4.5]decane-8,10-diol], the inhibition at 20 µM is 48.1%.

The same assay, now with this note: read-out: % Inhibitory activity (at 20 μM), Table 1; compound at 20 μM; 60 nM his-galectin-3, 15 nM biotin-ASF.
On to `OC[C@H]1O[C@@]2(CCCO2)[C@H](OCc2cccc(F)c2F)[C@@H](n2cc(-c3cc(F)c(F)c(F)c3)nn2)[C@H]1O` [Compound A65, (5S,7R,8R,9S,10R)-10-((2,3-difluorobenzyl)oxy)-7-(hydroxymethyl)-9-(4-(3,4,5-trifluorophenyl)-1H-1,2,3-triazol-1-yl)-1,6-dioxaspiro[4.5]decan-8-ol], for which the inhibition at 20 µM is < 25%.

The same assay, now with this note: read-out: % Inhibitory activity (at 20 μM), Table 3, found values; compound at 20 μM; 60 nM his-galectin-3, 15 nM biotin-ASF.
On to `OC[C@H]1O[C@@]2(CCCO2)[C@H](OCc2cccc(F)c2F)[C@@H](n2cc(-c3cc(F)c(F)c(F)c3)nn2)[C@H]1O` [Compound A65, (5S,7R,8R,9S,10R)-10-((2,3-difluorobenzyl)oxy)-7-(hydroxymethyl)-9-(4-(3,4,5-trifluorophenyl)-1H-1,2,3-triazol-1-yl)-1,6-dioxaspiro[4.5]decan-8-ol], for which the inhibition at 20 µM turned out to be 17.3%.
